Data: PMC4077696 (PLoS Biology, 2014)
Entries after “also recorded” stand apart in the source; their conditions may differ. Where a name gives a salt, the structure may show the parent alone.

Experiments:
[1] = test system: EXP2 secretion in P. falciparum–infected erythrocytes; assay: EXP2 secretion to the parasitophorous vacuole membrane; assay type: cell-based, Plasmodium falciparum; details: 20 or 50 µM, 13 h
Experimental: (§1) For quantification of events in cells infected with parasites expressing Hyp8-GFP, highly synchronous ring-stage parasites engineered to express Hyp8-GFP from the CRT promoter were obtained by incubation of erythrocytes with viable merozoites for 15 min [47] and treated with 20 or 50 µM 916 30 min postinvasion for 13 h (until Hyp8-GFP expression from the CRT promoter had occurred for 1 h). Smears were fixed in 90∶10 acetone∶methanol, labeled with anti-GFP and anti-EXP2 antibodies, and Z-stacks captured on a Deltavision Elite microscope using a 100× objective. Over 40 Z-stacks per condition were imaged using the same exposure settings to allow quantitative analysis between groups.
The EXP2 signal was measured by masking the infected cell using a watershed transform on the summed and filtered red signal, seeded by the DAPI-positive parasite.

[2] = test system: PfEMP1 surface expression, CS2-GFP parasites; assay: PfEMP1 (VAR2CSA) surface display on infected erythrocytes by flow cytometry with PAM1.4; assay type: cell-based, Plasmodium falciparum; details: 15 µM 23 h or 50>15 µM
Experimental: As 916 treatment has adverse affects on parasites after 24 h, a sublethal dosing regime was developed (see Figure S7) to maximize the inhibitor effect while ensuring parasites remained viable 24 h postinvasion when surface-exposed PfEMP1 was measured. Treatment with >15 µM for 23 h or with 50 µM for >12 h postinvasion prior to decreasing to 15 µM adversely affected parasite growth and was avoided.
To measure PfEMP1 display, highly synchronous ring-stage CS2-GFP parasites preferentially expressing VAR2CSA (see Plasmids, Parasites, and Antibody Production) were obtained by incubation of erythrocytes with viable merozoites for 15 min [47], and parasites were treated with 916, 025, or DMSO using the dosage regime above. […] Labeled cells were washed with 0.1% casein/PBS and analyzed on a FACSCalibur cytometer (Becton-Dickinson, USA). Fluorescence in channel FL1 was used to measure parasite-infected erythrocytes (GFP), and fluorescence in channel FL4 was used to measure bound PAM1.4 IgG antibodies (Alexa 633) for each sample. The geometric mean fluorescence of uninfected erythrocytes (treated with secondary and tertiary but not primary antibodies) was deducted from the geometric mean fluorescence of infected erythrocytes using >100,000 cells per condition. […]

Cathepsin D = Cathepsin D (Homo sapiens, UniProt P07339); assay: Off-target activity against human aspartyl protease Cathepsin D; assay type: biochemical; details: read-out: IC50 CathD
[3] = test system: Hyp8-GFP export in P. falciparum–infected erythrocytes; assay: Quantification of Hyp8-GFP export and Maurer's clefts by immunofluorescence microscopy; assay type: cell-based, Plasmodium falciparum
Experimental: as §1
A parasite mask was generated by combining the signals from the maximum intensity projections of the nuclear (DAPI) and parasitophorous vacuole membrane (EXP2) images and setting a manual threshold. A whole infected erythrocyte mask was produced by manually tracing the cell boundary using the DIC image. Average GFP intensity measurements were determined on masked summed intensity projections of the GFP images using MetaMorph Image Analysis suite (Molecular Devices, USA). Ratios of the average intensity measurements of GFP inside the parasite (inside EXP2) versus exported to the erythrocyte (outside EXP2) were determined.
Clefts were counted using ImageJ's “Find Maxima” function to detect local maxima in the green signal within the masked cell region.

HEpG2 cells = assay: Toxicity against human HEpG2 cells; assay type: cell-based; details: toxicity against human cell line
[4] = test system: P. falciparum protein translation; assay: Global protein synthesis by radiolabeling parasite proteins after drug treatment; assay type: cell-based, Plasmodium falciparum; details: for Global protein synthesis after 23 h treatment of rings: 15 µM or 50>15 µM, BFA 5 µg/ml; for Global protein synthesis after 5 h treatment of trophozoites: 15 or 50 µM, BFA 10 µg/ml, 15 min labeling
Experimental: To gain further insight into the effects of 916, 024, and 025 on parasites, we assessed global protein synthesis following drug treatment by radiolabeling parasite proteins. Treatment of trophozoites with inhibitor for 5 h prior to radiolabeling had no detectable effect on translation, even at 50 µM concentrations (Figure S4A), indicating the compounds are not direct inhibitors of the translation machinery. We next assessed protein synthesis following 23 h of drug treatment of ring stage parasites (aged 1–3 h old at the initiation of treatment). […] Indeed, Giemsa smears following treatment identified a small proportion of pyknotic parasites in the population (results not shown). […] It is possible that PMV inhibition by 916 treatment has a similar but weaker effect to BFA, in that it causes the accumulation of uncleaved PEXEL precursors in the ER, perturbing ER transport, and that this negatively affects translation by an ER stress response. An alternative possibility is that translation was decreased slightly as a result of parasites dying from 916-mediated impairment of erythrocyte remodeling. Either way, the profile for 916 was different to that seen for 024 and 025, even at 50 µM, indicating the latter analogs likely kill parasites via a different mechanism to 916.
Whole parasite proteins were radiolabeled by culturing magnet-purified trophozoites (wild-type 3D7 or expressing PfEMP3-GFP) in Met/Cys-free medium for 30 min at 37°C before addition of 800 µCi/ml ^35S-Met/Cys (Perkin/Elmer) to the medium for the indicated times. Pellets were snap frozen in ethanol/dry ice bath and stored at −80°C. For radiolabeling in the presence of PMV inhibitor, parasites were treated with 20 µM WEHI-916 for 5 h before labeling commenced. For pulse-chases, proteins were radiolabeled in the presence or absence of inhibitor, as above, before further culture in radiolabel-free, inhibitor-free complete medium for the indicated times at 37°C before snap freezing. Frozen samples were either solubilized in Laemmli's buffer (Figure S4) or solubilized in 1% Triton X-100/PBS with protease inhibitor cocktail (Roche) and PfEMP3-GFP species immunopurified with α-GFP agarose (MBL) at 4°C for 2 h (Figures 3 and S3), and proteins were resolved by SDS-PAGE, visualized by autoradiography (7-d exposures), and quantified using a GS-800 Calibrated Densitometer (Bio-Rad).

Sequence of Cathepsin D (P07339 65-412): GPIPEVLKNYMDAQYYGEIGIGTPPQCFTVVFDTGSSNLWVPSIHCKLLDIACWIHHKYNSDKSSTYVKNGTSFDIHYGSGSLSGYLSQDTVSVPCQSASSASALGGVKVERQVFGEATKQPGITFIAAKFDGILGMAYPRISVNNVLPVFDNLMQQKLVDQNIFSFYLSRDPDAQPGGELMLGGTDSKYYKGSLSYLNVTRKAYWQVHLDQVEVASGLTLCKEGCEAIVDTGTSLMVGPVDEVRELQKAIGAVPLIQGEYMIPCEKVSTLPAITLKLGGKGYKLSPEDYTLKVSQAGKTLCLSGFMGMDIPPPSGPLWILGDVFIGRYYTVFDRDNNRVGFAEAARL

Compound	EXP2 signal at the parasitophorous vacuole membrane, in words [1]	Decrease of PfEMP1 surface expression ([2]; 24 h postinvasion)	IC50 (Cathepsin D) [µM]	Nonexported Hyp8-GFP signal inside EXP2, in words ([3]; 20 or 50 µM, 13 h)	Hyp8-GFP in Maurer's clefts (exported), in words ([3]; 20 or 50 µM, 13 h from 30 min postinvasion)	Reduction of mean number of GFP-positive Maurer's clefts ([3]; compared to DMSO)	IC50 (HEpG2 cells) [µM]	Global protein synthesis after 23 h treatment of rings [4]	Global protein synthesis after 5 h treatment of trophozoites [4]	Effect on PfEMP1 surface expression, in words [2]
CC(C)C[C@H](NC(=O)[C@@H](NC(=O)[C@H](CCCNC(=N)N)NS(=O)(=O)Cc1ccccc1)C(C)C)[C@@H](O)CC(=O)NCCc1ccccc1 [compound 916, PhCH2SO2-Arg(NH2)-Val-Sta-NH(CH2)2Ph .TFA]	no statistical difference	up to 55%	25	small but significant increase in nonexported GFP signal	dose-dependent decrease of Hyp8-GFP in MCs	up to 39%	> 100	minor reduction in translation; also recorded: slight reduction in translation	no defect in global protein synthesis	–
CC[C@H](C)[C@H](NC(=O)[C@@H](NC(=O)[C@H](CCCNC(=N)N)NS(=O)(=O)Cc1ccccc1)C(C)C)[C@@H](O)CC(=O)NCCc1ccccc1 [compound 025, PhCH2SO2Arg-Val-AHMHpA-NH(CH2)2Ph . TFA]	–	–	–	–	–	–	> 100	no defect in global protein synthesis	no defect in global protein synthesis	no effect
